Experimental data taken from PMC11249646, “Small-Molecule Disruptors of the Interaction between Calcium- and Integrin-Binding Protein 1 and Integrin αIIbβ3 as Novel Antiplatelet Agents” (ACS Pharmacology & Translational Science, 2024).
Read-outs that look alike come from different tables or passages of the source. Each block holds one compound with its values, some of them ahead of it.

Columns and labels:
[1] = molecular target: T1, GST-CIB1 : F-scrambled peptide (Homo sapiens, UniProt Q99828); assay: FP scrambled-peptide counter screen, 1536-well format; format: binding; details: for COUNTERSCREEN Curve Class / Curve Class (counterscreen): qHTS curve class
T1 construct: made in house; host or cells: BL-21 plus RIL cells (E. coli)
T1 sequence (Q99828 1-191): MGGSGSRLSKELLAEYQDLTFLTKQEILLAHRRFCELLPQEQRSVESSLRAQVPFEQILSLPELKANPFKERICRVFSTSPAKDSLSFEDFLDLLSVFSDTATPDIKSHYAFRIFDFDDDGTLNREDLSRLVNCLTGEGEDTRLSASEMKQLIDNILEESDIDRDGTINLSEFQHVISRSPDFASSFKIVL

[2] = molecular target: T2, CIB1 and αIIb interaction (CIB1-GST : F-αIIb peptide) (Homo sapiens, UniProt Q99828); assay: FP assay, 1536-well qHTS format (primary and confirmatory screen); format: binding; details: for CONFIRMATORY SCREEN Curve Class / Curve Class (confirmatory screen): qHTS curve class
T2 construct: made in house; host or cells: BL-21 plus RIL cells (E. coli)
T2 sequence (Q99828 1-191): T1 sequence (Q99828 1-191)

[3] = scrambled-peptide counterscreen
[4] = scrambled-peptide counterscreen, YES/NO call
[5] = confirmatory screen, YES/NO call
[6] = confirmatory screen, negative sign = inhibitory curve
[7] = confirmatory screen, negative = inhibition
[8] = qHTS primary screen hits, Table S2, negative = inhibition
[9] = qHTS primary screen hits, Table S2, read-out: IC50
[10] = counterscreen, negative sign = inhibitory curve
[11] = counterscreen, read-out: IC50 [μM] (counterscreen)
[12] = confirmatory screen, read-out: IC50 [μM] (confirmatory screen)
[13] = qHTS primary screen hits, Table S2, negative sign = inhibitory curve
[14] = Table S3, counterscreen, a negative sign marks inhibitory curves
[15] = Table S3, counterscreen, negative = inhibition
[16] = Table S3, counterscreen, read-out: IC50 [μM] (counterscreen)
[17] = Table S3, confirmatory screen, a negative sign marks inhibitory curves
[18] = Table S3, confirmatory screen, negative = inhibition
[19] = qHTS FP screen hits, Table S2, negative = inhibition
[20] = qHTS FP screen hits, Table S2, read-out: IC50
[21] = qHTS primary screen hits, Table S2, negative sign = inhibitory curve, several classes where COUNT > 1
[22] = qHTS FP screen hits, Table S2, one class per curve where COUNT > 1, negative sign = inhibitory curve
[23] = Table S3, confirmatory screen, YES/NO call
[24] = Table S3, confirmatory screen, read-out: IC50 [μM] (confirmatory screen)

SMILES: CN(C)[C@H]1CCN(c2cccc(Nc3nn4c(=O)c5ccccc5nc4s3)c2)C1.O=C(O)C(F)(F)F [NCGC00189222-02]
COUNTERSCREEN Efficacy (%) [1, 3]: -79%
COUNTERSCREEN Confirm? [1, 4]: YES
COUNTERSCREEN Curve Class [1, 3]: -2.2
IC50 ([1]; scrambled-peptide counterscreen, read-out: COUNTERSCREEN IC50): 56.2 µM
CONFIRMATORY SCREEN Confirm? [2, 5]: YES
CONFIRMATORY SCREEN Curve Class [2, 6]: -2.4
CONFIRMATORY SCREEN Efficacy (%) [2, 7]: -54%
Efficacy (%) [2, 8]: -39%
IC50 [2, 9]: 32.8 µM

Efficacy (%) (counterscreen) ([1]; counterscreen): -36%
Curve Class (counterscreen) [1, 10]: -2.2
IC50 [1, 11]: 39.8 µM
Efficacy (%) (confirmatory screen) ([2]; confirmatory screen): -58%
Confirm? (confirmatory screen) ([2]; confirmatory screen, YES/NO): YES
Curve Class (confirmatory screen) [2, 6]: -1.2
IC50 [2, 12]: 28.2 µM
SMILES: Cc1ccc(CNc2ncnc3ccc(-c4ccc([C@@H](C)O)o4)cc23)o1 [NCGC00189251-01]

SMILES: O=C(O)C(F)(F)F.O=C1CCCC2=C1C(c1cccnc1Br)N=C(Nc1nc3ccccc3o1)N2 (centres unmarked) [NCGC00189281-01]
COUNTERSCREEN Efficacy (%) ([1]; counterscreen): 0%
COUNTERSCREEN Curve Class ([1]; counterscreen): 4
CONFIRMATORY SCREEN Efficacy (%) ([2]; confirmatory screen): -31%
CONFIRMATORY SCREEN Curve Class ([2]; confirmatory screen): 4
Efficacy (%) [2, 8]: -26%
Curve Class [2, 13]: -2.4
IC50 [2, 9]: 25.1 µM

SMILES: Cc1ccsc1C1N=C(Nc2nc3ccccc3o2)NC2=C1C(=O)CCC2.O=C(O)C(F)(F)F (centres unmarked) [NCGC00189283-01]
Confirm? (counterscreen) ([1]; Table S3, counterscreen, YES/NO call): YES
Curve Class (counterscreen) [1, 14]: -2.4
Efficacy (%) (counterscreen) [1, 15]: -34%
IC50 [1, 16]: 63.1 µM
Curve Class (confirmatory screen) [2, 17]: 4
Efficacy (%) (confirmatory screen) [2, 18]: -22%
Efficacy (%) [2, 19]: -28%
IC50 [2, 20]: 7.9 µM

SMILES: COC(=O)c1ccc(O)c2ncc(-c3ccc(C(=O)N4CCNCC4)cc3)cc12.O=C(O)C(F)(F)F [NCGC00189509-01]
COUNTERSCREEN Efficacy (%) ([1]; counterscreen): -25%
COUNTERSCREEN Curve Class ([1]; counterscreen): 4
CONFIRMATORY SCREEN Efficacy (%) ([2]; confirmatory screen): -16%
CONFIRMATORY SCREEN Curve Class ([2]; confirmatory screen): 4
Efficacy (%) [2, 8]: -45%
Curve Class [2, 21]: -1.2
IC50 [2, 9]: 28.2 µM

SMILES: COC(=O)c1ccc(O)c2ncc(-c3ccc(C(=O)NCCCN(C)C)cc3)cc12.O=C(O)C(F)(F)F [NCGC00189510-01]
Curve Class (counterscreen) [1, 14]: 3
Efficacy (%) (counterscreen) [1, 15]: 226%
IC50 [1, 16]: 89.1 µM
Curve Class (confirmatory screen) [2, 17]: 4
Efficacy (%) (confirmatory screen) [2, 18]: -26%
Efficacy (%) [2, 19]: -71%
Curve Class [2, 22]: -2.2
IC50 [2, 20]: 44.7 µM

SMILES: O=C(O)C(F)(F)F.O=C1Nc2ccccc2/C1=N/NC(=S)Nc1ccc(Oc2ccccc2)cc1 [NCGC00229524-01]
Curve Class (counterscreen) [1, 14]: -1.4
Efficacy (%) (counterscreen) [1, 15]: -38%
IC50 [1, 16]: 4 µM
Confirm? (confirmatory screen) [2, 23]: YES
Curve Class (confirmatory screen) [2, 17]: -1.4
Efficacy (%) (confirmatory screen) [2, 18]: -29%
IC50 [2, 24]: 12.6 µM
Efficacy (%) [2, 8]: -25%
Curve Class [2, 13]: -1.4
IC50 [2, 9]: 2.8 µM

SMILES: O=C(O)C(F)(F)F.O=C1Nc2ccccc2/C1=N/NC(=S)Nc1ccc(O)cc1 [NCGC00229525-01]
Curve Class (counterscreen) [1, 14]: -1.2
Efficacy (%) (counterscreen) [1, 15]: -61%
IC50 [1, 16]: 6.3 µM
Confirm? (confirmatory screen) [2, 23]: YES
Curve Class (confirmatory screen) [2, 17]: -1.4
Efficacy (%) (confirmatory screen) [2, 18]: -32%
IC50 [2, 24]: 11.2 µM
Efficacy (%) [2, 19]: -42%
Curve Class [2, 22]: -1.2
IC50 [2, 20]: 8.9 µM

SMILES: CN(C)c1ccc(NC(=S)N/N=C2\C(=O)Nc3ccccc32)cc1.O=C(O)C(F)(F)F [NCGC00229526-01]
Efficacy (%) (counterscreen) ([1]; counterscreen): -44%
Curve Class (counterscreen) [1, 10]: -1.2
IC50 [1, 11]: 22.4 µM
Efficacy (%) (confirmatory screen) ([2]; confirmatory screen): -73%
Confirm? (confirmatory screen) ([2]; confirmatory screen, YES/NO): YES
Curve Class (confirmatory screen) [2, 6]: -1.4
IC50 [2, 12]: 10 µM
Efficacy (%) [2, 8]: -38%
Curve Class [2, 21]: -1.2
IC50 [2, 9]: 3.5 µM

SMILES: CNC(=S)N/N=C1\C(=O)Nc2ccccc21.O=C(O)C(F)(F)F [NCGC00229528-01]
COUNTERSCREEN Efficacy (%) [1, 3]: -28%
COUNTERSCREEN Confirm? [1, 4]: YES
COUNTERSCREEN Curve Class [1, 3]: 4
CONFIRMATORY SCREEN Confirm? [2, 5]: YES
CONFIRMATORY SCREEN Curve Class [2, 6]: -1.4
CONFIRMATORY SCREEN Efficacy (%) [2, 7]: -28%
IC50 ([2]; confirmatory screen, read-out: CONFIRMATORY SCREEN IC50): 14.1 µM
Efficacy (%) [2, 8]: -26%
Curve Class [2, 21]: -1.4
IC50 [2, 9]: 7.9 µM
